Reference: patent US20250170267A1, “ANTIBODY-DRUG CONJUGATE PRECURSOR AND INTERMEDIATE FOR SYNTHESIS THEREOF” (UBE Corporation, priority 2022, published 2025)
Numbered stars: 1 amine (or outer) side, 2 acyl side, 3 side chain; on linkers, the order of the positions; unused ones are H or OH. Square brackets hold non-standard residues; d marks the D form. Peptide text beside a SMILES is read from it. * marks the point of attachment. Exatecan = CC[C@@]1(O)C(=O)OCc2c1cc1n(c2=O)Cc2c-1nc1cc(F)c(C)c3c1c2[C@@H](N*)CC3; Dolaproine = CO[C@@H]([C@@H]1CCCN1)[C@@H](C)C(=O)O; Propanoyl(3-maleimido) = O=C1C=CC(=O)N1CCC(=O)*; X5 = C[C@@H](N[*:1])[C@@H](OC(=O)[*:2])c1ccccc1; X10 = COCCOC(=O)O[C@@H](c1ccccc1)[C@@H](C)N*; Dil = CC[C@H](C)[C@H](NC)[C@@H](CC(=O)O)OC; X6 = O=C(O)C1OC(n2cc(CN*)nn2)C(O)C(O)C1O; PABC = O=C(OCc1ccc(N[*:1])cc1)[*:2]; X1 = C[C@@H](N*)[C@@H](O)c1ccccc1; hSer(lactone) = O=C1OCC[C@@H]1N*; Cit = NC(=O)NCCC[C@H](N)C(=O)O; PEG4 = NCCOCCOCCOCCOCCC(=O)O; NMeV = CN[C@H](C(=O)O)C(C)C; Sar = CNCC(=O)O

Columns and labels:
[1] = biological target: T1, porcine tubulin (Sus scrofa, UniProt P02550+P02554); assay: Tubulin polymerization inhibition test; format: biochemical; conditions: porcine tubulin, 37° C., fluorescence over 60 minutes; read-out: IC50 value (tubulin polymerization inhibition)
T1 construct: purchased Cytoskeleton, Inc. BK011P
T1 sequence (P02550 whole entry): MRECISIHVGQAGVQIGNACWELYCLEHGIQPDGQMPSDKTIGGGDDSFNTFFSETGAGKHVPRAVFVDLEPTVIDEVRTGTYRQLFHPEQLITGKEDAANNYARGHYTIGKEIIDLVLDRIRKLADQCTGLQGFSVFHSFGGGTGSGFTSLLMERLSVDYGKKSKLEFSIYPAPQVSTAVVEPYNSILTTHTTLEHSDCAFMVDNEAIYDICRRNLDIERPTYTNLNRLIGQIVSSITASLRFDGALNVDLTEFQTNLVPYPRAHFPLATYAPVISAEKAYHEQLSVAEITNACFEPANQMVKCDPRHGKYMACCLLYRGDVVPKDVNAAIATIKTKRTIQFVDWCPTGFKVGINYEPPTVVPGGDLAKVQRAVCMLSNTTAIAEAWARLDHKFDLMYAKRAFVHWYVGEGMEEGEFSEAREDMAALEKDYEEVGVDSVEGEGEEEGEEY
T1 sequence (P02554 whole entry): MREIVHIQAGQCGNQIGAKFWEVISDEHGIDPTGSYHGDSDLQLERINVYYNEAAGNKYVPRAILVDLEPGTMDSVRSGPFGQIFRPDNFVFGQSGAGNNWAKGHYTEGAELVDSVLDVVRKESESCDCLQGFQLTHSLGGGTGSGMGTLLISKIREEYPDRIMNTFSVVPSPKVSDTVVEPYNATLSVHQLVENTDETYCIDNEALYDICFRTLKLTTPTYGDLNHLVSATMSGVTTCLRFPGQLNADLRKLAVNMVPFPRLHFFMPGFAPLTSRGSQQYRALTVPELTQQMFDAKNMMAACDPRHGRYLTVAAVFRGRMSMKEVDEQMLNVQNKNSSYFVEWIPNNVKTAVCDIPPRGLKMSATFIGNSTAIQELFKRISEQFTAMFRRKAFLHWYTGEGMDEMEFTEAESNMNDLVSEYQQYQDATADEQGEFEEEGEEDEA
Procedure: For measuring the tubulin polymerization inhibitory action, Tubulin Polymerization Assay Kit (manufactured by Cytoskeleton, Inc., BK011P) was used. A PIPES buffer containing porcine tubulin, GTP, MgCl2, EGTA, Glycerol, and a fluorescent reporter was prepared under ice-cooling as a reaction solution. The reaction solution was ice-cooled until it was used. A test compound solution was prepared by an aqueous solution containing 1.5% DMSO, and added to a 96 well plate (manufactured by Corning Inc., 3686) at 5 μL/well. The reaction solution was added thereto at 50 μL/well, the plate was placed in a microplate reader (FlexStation 3, manufactured by Molecular Device, LLC) in which the internal temperature was set to 37° C. in advance, and the fluorescence intensity measurement (excitation wavelength: 360 nm, detection wavelength: 420 nm) of each well was started. The fluorescence intensity was measured once every minute, and the measurement was continued for 60 minutes.
The tubulin polymerization inhibition rate (%) was calculated by the following equation.
[formula] • a: average amount of fluorescence intensity increase in vehicle-treated well (n=2) • b: average amount of fluorescence intensity increase in test compound-treated well (n=2)
Amount of fluorescence intensity increase: (average fluorescence intensity after 51 to 60 minutes from measurement start)−(average fluorescence intensity after 1 to 6 minutes from measurement start)

[2] = biological target: T2, human liver Cathepsin B (Homo sapiens, UniProt P07858); assay: Metabolism test using human liver Cathepsin B; format: in vitro ADME; conditions: 37° C., 24 hours, released drug, LC-MS/MS
T2 construct: human liver Cathepsin B (manufactured by Sigma-Aldrich Co. LLC, Cat No. C8571 25 μg/vial); purchased Sigma-Aldrich Co. LLC C8571; host or cells: human liver
Procedure: To human liver Cathepsin B (manufactured by Sigma-Aldrich Co. LLC, Cat No. C8571 25 μg/vial)(corresponding to 400 Unit/mL)(5 μL), X10 Catabolic Buffer (manufactured by SEKISUI-Xenotech, LLC., K5200)(10 μL), 2.5 mM Bovine Serum Albumin (manufactured by FUJIFILM Wako Pure Chemical Corporation, Cat No. 012-15093)(5 μL), and distilled water (manufactured by FUJIFILM Wako Pure Chemical Corporation, for HPLC)(55 μL) was added 1.2 μM test compound (antibody-drug conjugate prepared in ADC Production examples)(25 μL) dissolved in PBS to prepare a reaction solution. After the reaction solution was incubated at 37° C. for 24 hours, “an antitumor drug molecule or an analog thereof, or a derivative thereof” released from the antibody-drug conjugate into the reaction solution was quantified by LC-MS/MS (high performance liquid chromatography/mass spectrometer system) under the following conditions. LC-MS/MS analysis conditions
(§1) LC: LC20 or LC30 HPLC system manufactured by Shimadzu Corporation
(§2) Column: Phenomenex Kinetex C18 (50×2.1 mm, 2.6 μm)
(§3) Column temperature: 40° C.
(§4) Mobile phase A: 0.1% aqueous solution of formic acid, Mobile phase B: 0.1% solution of formic acid in a mixture of 50% acetonitrile/methanol
(§5) Mode: Positive or Negative
(§6) The release rate (%) of drug was calculated by the following equation.

[3] = system: human liver lysosome; assay: Metabolism test using human liver lysosomal fraction; format: in vitro ADME; conditions: 37° C., 24 hours, released drug, LC-MS/MS
Procedure: To a reaction composition solution (X10 Catabolic Buffer (manufactured by SEKISUI-Xenotech, LLC., K5200))(60 μL) in which human liver lysosome (manufactured by SEKISUI-Xenotech, LLC., Cat No. H610.L 2.5 mg/mL)(corresponding to 0.125 mg of protein) was suspended and distilled water (manufactured by FUJIFILM Wako Pure Chemical Corporation, for HPLC)(10 μL) was added 1.2 μM test compound (antibody-drug conjugate produced in ADC Production examples)(25 μL) dissolved in PBS to prepare a reaction solution. After the reaction solution was incubated at 37° C. for 24 hours, “an antitumor drug molecule or an analog thereof, or a derivative thereof” released from the antibody-drug conjugate into the reaction solution was quantified by LC-MS/MS (high performance liquid chromatography/mass spectrometer system) under the following conditions. LC-MS/MS analysis conditions
as §1, §2, §3, §4, §5, §6

Row | SMILES | IC50 [1] | Release rate (%) of drug from ADC [2] | Release rate (%) of drug from ADC [3]
1 | CC[C@H](C)[C@@H]([C@@H](CC(=O)N1CCC[C@H]1[C@H](OC)[C@@H](C)C(=O)N[C@H](C)[C@@H](OC(=O)NCCOCCOCCOCCOCCOCCOCCOCCOCCOCCOCCOCCOC)c1ccccc1)OC)N(C)C(=O)[C@@H](NC(=O)[C@@H](NC)C(C)C)C(C)C [Example U-015] | ≤ 3 µM |  | 
2 | CC[C@@]1(OC(=O)OCc2ccc(NC(=O)[C@H](CCCNC(N)=O)NC(=O)[C@@H](NC(=O)[C@H](CC(=O)N[C@H]3CCOC3=O)NC(=O)CCOCCOCCOCCOCCNC(=O)[C@H](CNC(=O)CCP(=O)(O)O)N3C(=O)C=CC3=O)C(C)C)cc2)C(=O)OCc2c1cc1n(c2=O)Cc2c-1nc1cc(F)c(C)c3c1c2[C@@H](NC(C)=O)CC3 [Example 10] |  | 28% | 61%
3 | CC[C@H](C)[C@@H]([C@@H](CC(=O)N1CCC[C@H]1[C@H](OC)[C@@H](C)C(=O)N[C@H](C)[C@@H](OC(=O)NCc1cn(C2OC(C(=O)O)C(O)C(O)C2O)nn1)c1ccccc1)OC)N(C)C(=O)[C@@H](NC(=O)[C@@H](NC)C(C)C)C(C)C (stereo partly shown) [Example U-019] (H-[NMeV]V[Dil][Dolaproine][X5]-X6) | ≤ 3 µM |  | 
4 | CC[C@H](C)[C@@H]([C@@H](CC(=O)N1CCC[C@H]1[C@H](OC)[C@@H](C)C(=O)N[C@H](C)[C@@H](O)c1ccccc1)OC)N(C)C(=O)[C@@H](NC(=O)[C@H](C(C)C)N(C)CCONC)C(C)C [Example U-013] | ≤ 3 µM |  | 
5 | CC[C@H](C)[C@@H]([C@@H](CC(=O)N1CCC[C@H]1[C@H](OC)[C@@H](C)C(=O)N[C@H](C)[C@@H](OC(=O)OCCOC)c1ccccc1)OC)N(C)C(=O)[C@@H](NC(=O)[C@@H](NC)C(C)C)C(C)C [Example U-012] (H-[NMeV]V[Dil][Dolaproine]-X10) | ≤ 3 µM |  | 
6 | CCN(CC(=O)N[C@H]1CCc2c(C)c(F)cc3nc4c(c1c23)Cn1c-4cc2c(c1=O)COC(=O)[C@]2(O)CC)C(=O)OCc1ccc(NC(=O)[C@H](CCCNC(N)=O)NC(=O)[C@@H](NC(=O)[C@H](CC(=O)N[C@H]2CCOC2=O)NC(=O)CCOCCOCCOCCOCCNC(=O)[C@H](CNC(=O)CCP(=O)(O)O)N2C(=O)C=CC2=O)C(C)C)cc1 [Example 9] |  | 40% | 98%
7 | CC[C@@]1(O)C(=O)OCc2c1cc1n(c2=O)Cc2c-1nc1cc(F)c(C)c3c1c2[C@@H](NC(=O)CN(C)C(=O)OCc1ccc(NC(=O)[C@H](CCCNC(N)=O)NC(=O)[C@@H](NC(=O)[C@H](CC(=O)N[C@H]2CCOC2=O)NC(=O)CCOCCOCCOCCOCCNC(=O)CCN2C(=O)C=CC2=O)C(C)C)cc1)CC3 [Example 4] ({Propanoyl(3-maleimido)-PEG4}-D(hSer(lactone))V[Cit][PABC][Sar]-Exatecan) |  | 97% | 76%
8 | CC[C@H](C)[C@@H]([C@@H](CC(=O)N1CCC[C@H]1[C@H](OC)[C@@H](C)C(=O)N[C@H](C)[C@@H](O)c1ccccc1)OC)N(C)C(=O)[C@@H](NC(=O)[C@H](C(C)C)N(C)C(=O)CNC(=O)CN)C(C)C [Example U-009] (H-GG[NMeV]V[Dil][Dolaproine]-X1) | ≤ 3 µM |  | 
9 | CC[C@H](C)[C@@H]([C@@H](CC(=O)N1CCC[C@H]1[C@H](OC)[C@@H](C)C(=O)N[C@H](C)[C@@H](O)c1ccccc1)OC)N(C)C(=O)[C@@H](NC(=O)[C@H](C(C)C)N(C)Cc1cc(N)ccc1F)C(C)C [Example U-008] | ≤ 3 µM |  | 
10 | CC[C@H](C)[C@@H]([C@@H](CC(=O)N1CCC[C@H]1[C@H](OC)[C@@H](C)C(=O)N[C@H](C)[C@@H](OP(=O)(O)O)c1ccccc1)OC)N(C)C(=O)[C@@H](NC(=O)[C@H](C(C)C)N(C)C)C(C)C [Example U-031] | ≤ 3 µM |  | 
